In assay [1] the test system is JAK2 pathway (P-STAT5 in TF-1 human erythroleukemia cells + EPO). Description: P-STAT5 TF-1+Erythropoietin (EPO) assay. The format is cell-based. The note with it: Homo sapiens, TF-1, 0.5 h, TF-1 cells, 30 minutes compound, EPO 30 min; IC50 by four-parameter fit; read-out: Cellular (JAK2 PSTAT5 TF1 + EPO). As for the experimental part:
(§1) TF-1 human erythroleukemia cells (ATCC®; Manassas, VA; Catalog No. CRL-2003™) were grown in Roswell Park Memorial Institute (RPMI) medium supplemented with 10% heat-inactivated fetal bovine serum (FBS), 2 ng/mL granulocyte-macrophage colony-stimulating factor, 1× non-essential amino acids (NEAA), and 1 mM sodium pyruvate. The day before the assay, the cultures were transferred to Opti-MEM™, 1×NEAA, 1 mM sodium pyruvate, and 0.5% charcoal-stripped FBS (starve medium). Inhibitor stock solutions (5 mM in DMSO) were serially diluted 1:2 in DMSO to generate a 10-point concentration titration (at 500× test concentration), which was further diluted by a 50-fold dilution in Assay Medium (RPMI containing 1×NEAA and 1 mM sodium pyruvate) to generate a 10× concentration titration (in 2% DMSO). The cells (300,000 cells/well in 35 μL of Assay Medium) were seeded in 384-well Greiner plates. Diluted inhibitor at 10× concentration (5 μL) was added to the cells and the plates were incubated for 30 minutes at 37° C. in a humidified incubator. Cells were stimulated with the human recombinant cytokine at the respective EC90 concentrations, as previously determined for each individual lot. For the phosphorylated signal transducer and activator of transcription 6 (P-STAT6) TF-1+Interleukin-13 (IL-13) assay, 10 μL of 250 ng/mL IL-13 (R&D Systems; Minneapolis, MN) was added to the cells, which were then incubated for 10 minutes at 37° C. For the P-STAT5 TF-1+Erythropoietin (EPO) assay, 10 μL of 110 IU/mL EPO (Gibco Life Technologies, Catalog No. PHC2054) was added to the cells, which were then incubated for 30 min at 37° C. For both assays, the incubation was followed by addition to the cells of 5 μL of ice-cold 10× cell lysis buffer (Cell Signaling Technologies; Danvers, MA; Catalog No. 9803S) containing 1 mM phenylmethylsulfonyl fluoride (PMSF). Assay plates were frozen at −80° C. for a minimum of 1 hour. In the IL-13 assay, P-STAT6 was measured by coating goat anti-rabbit (GAR) plates (Meso Scale Discovery [MSD]; Rockville, MD; Catalog No. MSD L21RA-1) with rabbit anti-human total STAT6 antibody (Cell Signaling Technologies; Catalog No. 9362S), incubating the cell lysates in the coated plates overnight at 4° C., and then detecting with mouse anti-P-STAT6 (Tyr641) Clone 16E12 antibody (MilliporeSigma; Burlington, MA; Catalog No. 05-590, custom labeled by MSD with SULFO-tag) using standard MSD plate processing, washing, and detection protocols. In the EPO assay, P-STAT5 was detected using the phospho-STAT5a,b Whole Cell Lysate Kit (MSD; Catalog No. K150IGD-1). The electrochemiluminescence (ECL) signal of wells was read on the MESO SECTOR S600 (MSD) reader.
(§2) Data analysis was performed by subtracting the negative control (cytokine stimulated and 20 μM control inhibitor-treated cells) mean ECL value from the ECL value of all wells, determining percent of control for test compound well ECL values relative to the positive control (cytokine stimulated and DMSO-treated cells) mean ECL value, and determining the IC50 for test compounds with a four-parameter logistic fit model as shown in Equation 4.

Assay [2] relates to JAK1 pathway (P-STAT6 in TF-1 human erythroleukemia cells + IL-13). As to the kind of experiment: P-STAT6 TF-1+Interleukin-13 (IL-13) assay. In kind it is cell-based. The note with it: Homo sapiens, TF-1, 0.5 h, TF-1 cells, 30 minutes compound, IL-13 10 minutes; IC50 by four-parameter fit; read-out: Cellular PSTAT6 TF-1 + IL13. Here is the method: as §1, §2

As for `CN1CC(n2nnc(Cn3cc(NC(=O)c4cnn5cccnc45)c(-c4cc(C5CC5)ccc4OC(F)F)n3)n2)C1` [Example 23, N-[3-[5-cyclopropyl-2-(difluoromethoxy)phenyl]-1-[[2-(1-methylazetidin-3-yl)tetrazol-5-yl]methyl]pyrazol-4-yl]pyrazolo[1,5-a]pyrimidine-3-carboxamide], the IC50 in assay [1] came out at 8.2 nM; in assay [2], 7.4 nM.

Consider `CN1CCC(n2nnnc2Cn2cc(NC(=O)c3cnn4cccnc34)c(-c3cc(OC(F)F)ccc3OC(F)F)n2)C1` (stereo not drawn) [Example 26, N-[3-[2,5-bis(difluoromethoxy)phenyl]-1-[[1-(1-methylpyrrolidin-3-yl)tetrazol-5-yl]methyl]pyrazol-4-yl]pyrazolo[1,5-a]pyrimidine-3-carboxamide], for which the IC50 in assay [1] was found to be 18 nM; in assay [2] it was 11 nM.

As to `CN(CCN1CC(n2nnc(Cn3cc(NC(=O)c4cnn5cccnc45)c(-c4cc(OC(F)F)ccc4OC(F)F)n3)n2)C1)C(=O)OC(C)(C)C` [Example 31, tert-butyl N-[2-[3-[5-[[3-[2,5-bis(difluoromethoxy)phenyl]-4-(pyrazolo[1,5-a]pyrimidine-3-carbonylamino)pyrazol-1-yl]methyl]tetrazol-2-yl]azetidin-1-yl]ethyl]-N-methyl-carbamate], the IC50 in assay [1] came out at 8.6 nM; in assay [2], 13 nM.

In the case of `CN(C)CCN1CC(n2nnc(Cn3cc(NC(=O)c4cnn5cccnc45)c(-c4cc(Cl)ccc4OC(F)F)n3)n2)C1` [Example 37, N-[3-[5-chloro-2-(difluoromethoxy)phenyl]-1-[[2-[1-[2-(dimethylamino)ethyl]azetidin-3-yl]tetrazol-5-yl]methyl]pyrazol-4-yl]pyrazolo[1,5-a]pyrimidine-3-carboxamide], the figures for the IC50 in assay [1] and in assay [2] were 16 nM and 6.9 nM, respectively.

Consider `CN1CCC(N2CC(n3nnc(Cn4cc(NC(=O)c5cnn6cccnc56)c(-c5cc(OC(F)F)ccc5OC(F)F)n4)n3)C2)CC1` [Example 38, N-[3-[2,5-bis(difluoromethoxy)phenyl]-1-[[2-[1-(1-methyl-4-piperidyl)azetidin-3-yl]tetrazol-5-yl]methyl]pyrazol-4-yl]pyrazolo[1,5-a]pyrimidine-3-carboxamide], for which the values for the IC50 in assay [1] and in assay [2] were 42 nM and 21 nM, respectively.

Consider `CSc1ccc(OC(F)F)c(-c2nn(Cc3nnn(C4CN(CCCN(C)C)C4)n3)cc2NC(=O)c2cnn3cccnc23)c1` [Example 58, N-[3-[2-(difluoromethoxy)-5-methylsulfanyl-phenyl]-1-[[2-[1-[3-(dimethylamino)propyl]azetidin-3-yl]tetrazol-5-yl]methyl]pyrazol-4-yl]pyrazolo[1,5-a]pyrimidine-3-carboxamide], for which the figures for the IC50 in assay [1] and in assay [2] were 24 nM and 51 nM, respectively.

With `CN(C)CCN1CCC(n2nnc(Cn3cc(NC(=O)c4cnn5cccnc45)c(-c4cc(OC(F)F)ccc4OC(F)F)n3)n2)CC1` [Example 61, N-[3-[2,5-bis(difluoromethoxy)phenyl]-1-[[2-[1-[2-(dimethylamino)ethyl]-4-piperidyl]tetrazol-5-yl]methyl]pyrazol-4-yl]pyrazolo[1,5-a]pyrimidine-3-carboxamide], the results for the IC50 in assay [1] and in assay [2] were 36 nM and 33 nM, respectively.

For the compound `CN(C)[C@H]1C[C@H](N2CC(n3nnc(Cn4cc(NC(=O)c5cnn6cccnc56)c(-c5cc(OC(F)F)ccc5OC(F)F)n4)n3)C2)C1` [Example 70, N-[3-[2,5-bis(difluoromethoxy)phenyl]-1-[[2-[1-[3-(dimethylamino)cyclobutyl]azetidin-3-yl]tetrazol-5-yl]methyl]pyrazol-4-yl]pyrazolo[1,5-a]pyrimidine-3-carboxamide], the IC50 in assay [1] amounted to 12 nM; in assay [2], 30 nM.

On to `CN1CC(N2CC(n3nnc(Cn4cc(NC(=O)c5cnn6cccnc56)c(-c5cc(OC(F)F)ccc5OC(F)F)n4)n3)C2)C1` [Example 78, N-[3-[2,5-bis(difluoromethoxy)phenyl]-1-[[2-[1-(1-methylazetidin-3-yl)azetidin-3-yl]tetrazol-5-yl]methyl]pyrazol-4-yl]pyrazolo[1,5-a]pyrimidine-3-carboxamide; formic acid], for which the IC50 in assay [1] is 47 nM; in assay [2], 62 nM.

For the origin of these results see patent US12247032B2, “Substituted pyrazolo[1,5-a]pyrimidines as inhibitors of JAK kinases” (Genentech, Inc., priority 2019, dated 2025).
